# Source: patent US8586739B2, “Heterocyclic compounds and their uses” (Amgen Inc., priority 2007, dated 2013)
# pIC50: −log10 of the molar value.
# Biological target: T1, PI3Kδ (Homo sapiens, UniProt O00329)
# T1 construct: Full length p110 subunits of PI3k α, β and δ, N-terminally labeled with polyHis tag; polyHis (N); made in house; host or cells: Sf9 insect cells (baculovirus)
# Assay: In vitro enzyme assay of recombinant PI3K (residual ATP bioluminescence)
# Assay type: biochemical
# Settings: not given
# Procedure: Recombinant Expression of PI3Ks
# Full length p110 subunits of PI3k α, β and δ, N-terminally labeled with polyHis tag, were coexpressed with p85 with Baculo virus expression vectors in sf9 insect cells. P110/p85 heterodimers were purified by sequential Ni-NTA, Q-HP, Superdex-100 chromatography. Purified α, β and δ isozymes were stored at −20° C. in 20 mM Tris, pH 8, 0.2M NaCl, 50% glycerol, 5 mM DTT, 2 mM Na cholate. Truncated PI3Kγ, residues 114-1102, N-terminally labeled with polyHis tag, was expessed with Baculo virus in Hi5 insect cells. The γ isozyme was purified by sequential Ni-NTA, Superdex-200, Q-HP chromatography. The γ isozyme was stored frozen at −80° C. in NaH2PO4, pH 8, 0.2M NaCl, 1% ethylene glycol, 2 mM β-mercaptoethanol.
# Assays were performed in 25 μL with the above final concentrations of components in white polyproplyene plates (Costar 3355). Phospatidyl inositol phosphoacceptor, PtdIns(4,5)P2 P4508, was from Echelon Biosciences. The ATPase activity of the alpha and gamma isozymes was not greatly stimulated by PtdIns(4,5)P2 under these conditions and was therefore omitted from the assay of these isozymes. Test compounds were dissolved in dimethyl sulfoxide and diluted with three-fold serial dilutions. The compound in DMSO (1 μL) was added per test well, and the inhibition relative to reactions containing no compound, with and without enzyme was determined. After assay incubation at room temperature, the reaction was stopped and residual ATP determined by addition of an equal volume of a commercial ATP bioluminescence kit (Perkin Elmer EasyLite) according to the manufacturer's instructions, and detected using a AnalystGT luminometer.
# T1 sequence (O00329 whole entry): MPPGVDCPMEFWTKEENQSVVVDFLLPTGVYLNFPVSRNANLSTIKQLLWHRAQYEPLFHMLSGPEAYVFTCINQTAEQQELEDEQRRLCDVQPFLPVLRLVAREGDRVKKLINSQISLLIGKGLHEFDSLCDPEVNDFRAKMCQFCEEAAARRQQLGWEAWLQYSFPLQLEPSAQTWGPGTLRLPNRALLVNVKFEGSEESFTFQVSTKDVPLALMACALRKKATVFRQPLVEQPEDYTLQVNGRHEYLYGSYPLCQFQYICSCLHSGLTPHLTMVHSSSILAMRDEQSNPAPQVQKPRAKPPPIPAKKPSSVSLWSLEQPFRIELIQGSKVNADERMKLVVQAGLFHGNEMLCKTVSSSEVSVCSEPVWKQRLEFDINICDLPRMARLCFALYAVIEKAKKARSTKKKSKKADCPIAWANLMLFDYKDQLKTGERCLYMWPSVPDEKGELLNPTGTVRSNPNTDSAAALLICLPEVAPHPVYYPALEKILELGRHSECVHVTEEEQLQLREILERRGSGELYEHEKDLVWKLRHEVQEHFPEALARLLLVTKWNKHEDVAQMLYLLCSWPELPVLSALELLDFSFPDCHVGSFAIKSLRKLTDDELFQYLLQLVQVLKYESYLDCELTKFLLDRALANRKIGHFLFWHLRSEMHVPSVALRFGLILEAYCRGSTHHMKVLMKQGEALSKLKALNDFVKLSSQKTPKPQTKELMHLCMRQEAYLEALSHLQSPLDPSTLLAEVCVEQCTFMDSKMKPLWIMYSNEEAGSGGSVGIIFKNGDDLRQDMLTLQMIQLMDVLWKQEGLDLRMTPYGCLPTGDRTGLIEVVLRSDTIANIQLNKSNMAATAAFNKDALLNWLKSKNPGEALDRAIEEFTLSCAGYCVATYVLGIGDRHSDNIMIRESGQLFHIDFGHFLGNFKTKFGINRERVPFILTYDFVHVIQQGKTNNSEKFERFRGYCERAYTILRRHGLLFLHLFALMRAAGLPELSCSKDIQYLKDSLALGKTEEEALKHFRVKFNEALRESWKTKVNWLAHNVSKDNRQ
# T1 sequence (P27986 whole entry partner): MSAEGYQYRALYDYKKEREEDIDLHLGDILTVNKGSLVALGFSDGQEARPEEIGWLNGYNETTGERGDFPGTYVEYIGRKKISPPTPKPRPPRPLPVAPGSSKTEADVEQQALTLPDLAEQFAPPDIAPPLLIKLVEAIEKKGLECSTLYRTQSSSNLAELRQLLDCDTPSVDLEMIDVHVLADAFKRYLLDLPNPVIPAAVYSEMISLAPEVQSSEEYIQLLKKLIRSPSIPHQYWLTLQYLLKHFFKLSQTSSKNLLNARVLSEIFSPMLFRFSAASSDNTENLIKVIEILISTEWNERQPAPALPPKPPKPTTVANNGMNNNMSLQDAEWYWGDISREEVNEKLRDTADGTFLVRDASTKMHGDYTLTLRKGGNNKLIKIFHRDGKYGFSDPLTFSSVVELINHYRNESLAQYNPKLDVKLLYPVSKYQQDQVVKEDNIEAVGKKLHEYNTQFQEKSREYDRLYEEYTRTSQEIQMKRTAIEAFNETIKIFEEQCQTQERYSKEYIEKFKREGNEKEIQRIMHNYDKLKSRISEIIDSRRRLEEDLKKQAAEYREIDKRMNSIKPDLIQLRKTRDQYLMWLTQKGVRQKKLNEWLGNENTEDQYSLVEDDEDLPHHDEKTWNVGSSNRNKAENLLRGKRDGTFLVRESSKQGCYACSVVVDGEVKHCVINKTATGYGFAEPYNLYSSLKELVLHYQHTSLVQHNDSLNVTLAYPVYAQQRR
row,pIC50,Structure (SMILES)
1,7.08,"Cc1ccccc1-c1nc2c(C)cccc2cc1CNc1ncnc2[nH]cnc12 [Example 1, N-((8-Methyl-2-o-tolylquinolin-3-yl)methyl)-9H-purin-6-amine]"
2,7.17,"Clc1ccccc1-c1nc2c(Cl)cccc2cc1CNc1ncnc2[nH]cnc12 [Example 2, N-((8-Chloro-2-(2-chlorophenyl)quinolin-3-yl)-methyl)-9H-purin-6-amine]"
3,6.21,"Clc1nc(NCc2cc3cccc(Cl)c3nc2-c2ccccc2Cl)c2nc[nH]c2n1 [Example 3, 2-Chloro-N-((8-chloro-2-(2-chlorophenyl)quinolin-3-yl)methyl)-9H-purin-6-amine]"
4,5.27,"COc1nc(NCc2cc3cccc(Cl)c3nc2-c2ccccc2Cl)c2cc[nH]c2n1 [Example 4, N-((8-Chloro-2-(2-chlorophenyl)quinolin-3-yl)methyl)-2-meth-oxy-7H-pyrrolo[2,3-d]pyrimidin-4-amine]"
5,7.92,"Cc1ccccc1-c1nc2c(C)cccc2cc1C(C)Oc1ncnc2[nH]cnc12 (stereo not drawn) [Example 5, 3-(1-(9H-Purin-6-yloxy)ethyl)-8-methyl-2-o-tolylquinoline]"
6,7.51,"Cc1cccc2cc(C(C)Nc3ncnc4[nH]cnc34)c(-c3ccccc3Cl)nc12 (stereo not drawn) [Example 6, N-(1-(2-(2-Chlorophenyl)-8-methylquinolin-3-yl)ethyl)-9H-purin-6-amine]"
7,7.42,"COc1ccccc1-c1nc2c(C)cccc2cc1COc1ncnc2[nH]cnc12 [Example 7, 3-((9H-Purin-6-yloxy)methyl)-2-(2-methoxyphenyl)-8-methylquinoline]"
8,7.66,"Cc1cccc2cc(COc3ncnc4[nH]cnc34)c(-c3ccccc3-c3ccccc3)nc12 [Example 8, 3-((9H-Purin-6-yloxy)methyl)-2-(biphenyl)-8-methylquinoline]"
9,7.55,"C=CCC(Oc1ncnc2[nH]ccc12)c1cc2cccc(C)c2nc1-c1ccccc1Cl (stereo not drawn) [Example 9, 3-(1-(7H-Pyrrolo[2,3-d]pyrimidin-4-yloxy)but-3-enyl)-2-(2-chlorophenyl)-8-methylquinoline]"
10,7.60,"Cc1cccc2cc(COc3ncnc4[nH]cnc34)c(-c3ccccc3Cl)nc12 [Example 10, 3-((9H-Purin-6-yloxy)methyl)-2-(2-chlorophenyl)-8-methylquinoline]"
11,6.05,"Cc1ccccc1-c1nc2c(C)cccc2cc1CSc1ncnc2[nH]cnc12 [Example 12, 3-((9H-Purin-6-ylthio)methyl)-8-methyl-2-o-tolylquinoline]"
12,7.09,"Cc1ccccc1-c1nc2c(C)cccc2cc1CNc1nc(N)nc2[nH]cnc12 [Example 13, N6-((8-Methyl-2-o-tolylquinolin-3-yl)methyl)-9H-purine-2,6-diamine]"
13,7.25,Cc1ccccc1-c1nc2c(C)cccc2cc1COc1ncnc2[nH]ccc12 [Example 14]
14,7.17,"Cc1cccc2cc(COc3ncnc4[nH]ccc34)c(-c3ccccc3)nc12 [Example 15, 3-((7H-Pyrrolo[2,3-d]pyrimidin-4-yloxy)methyl)-8-methyl-2-phenylquinoline]"
15,7.04,"Cc1cccc2cc(CNc3ncnc4[nH]cnc34)c(-c3ccccc3C(F)(F)F)nc12 [Example 16, N-((8-Methyl-2-(2-(trifluoromethyl)phenyl)quinolin-3-yl)methyl)-9H-purin-6-amine]"

# System: human B cells
# Assay: Human B cells proliferation stimulated by anti-IgM (3H thymidine)
# Assay type: cell-based
# Settings: Homo sapiens, B-cell, 72 h, purified human B cells, anti-Human IgM + CD40L-LZ
# Outline: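 Human B cells were magnetically purified from PBMCs and plated at 50000/well in DMEM+5% FCS. Medium containing 250 ng/mL CD40L-LZ and 2 μg/mL anti-IgM was combined with PI3K inhibitor medium, and cells were incubated 72 h at 37° C. Proliferation was read by 0.5-1 uCi/well ^3H thymidine pulse (~18 h).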
row,Structure (SMILES),pIC50
1,"Fc1cc(F)cc(-c2nc3c(Cl)cccc3cc2CNc2ncnc3[nH]cnc23)c1 [N-((8-chloro-2-(3,5-difluorophenyl)-3-quinolinyl)methyl)-9H-purin-6-amine]",7.25
2,CC(C)c1cccc(-c2nc3c(Cl)cccc3cc2CNc2ncnc3[nH]cnc23)c1 [N-((8-chloro-2-(3-(1-methylethyl)phenyl)-3-quinolinyl)methyl)-9H-purin-6-amine],6.52
3,Clc1cccc(-c2nc3c(Cl)cccc3cc2CNc2ncnc3[nH]cnc23)c1 [N-((8-chloro-2-(3-chlorophenyl)-3-quinolinyl)methyl)-9H-purin-6-amine],6.39
4,FC1CCCN(c2nc3c(Cl)cccc3cc2CNc2ncnc3[nH]cnc23)C1 (stereo not drawn) [N-((8-chloro-2-(3-fluoro-1-piperidinyl)-3-quinolinyl)methyl)-9H-purin-6-amine],7.02
5,Fc1cccc(-c2nc3c(Cl)cccc3cc2CNc2ncnc3[nH]cnc23)c1 [N-((8-chloro-2-(3-fluorophenyl)-3-quinolinyl)methyl)-9H-purin-6-amine],7.56
6,CC(C)c1ccncc1-c1nc2c(Cl)cccc2cc1CNc1ncnc2[nH]cnc12 [N-((8-chloro-2-(4-(1-methylethyl)-3-pyridinyl)-3-quinolinyl)methyl)-9H-purin-6-amine],7.59
7,CC(C)c1ncncc1-c1nc2c(Cl)cccc2cc1CNc1ncnc2[nH]cnc12 [N-((8-chloro-2-(4-(1-methylethyl)-5-pyrimidinyl)-3-quinolinyl)methyl)-9H-purin-6-amine],7.10
8,FC(F)(F)c1ccncc1-c1nc2c(Cl)cccc2cc1CNc1ncnc2[nH]cnc12 [N-((8-chloro-2-(4-(trifluoromethyl)-3-pyridinyl)-3-quinolinyl)methyl)-9H-purin-6-amine],7.16
9,Fc1ccc(-c2nc3c(Cl)cccc3cc2CNc2ncnc3nc[nH]c23)cc1 [N-((8-chloro-2-(4-fluorophenyl)-3-quinolinyl)methyl)-7H-purin-6-amine],6.58
10,CC(Oc1ccc(F)cc1-c1nc2c(Cl)cccc2cc1CNc1ncnc2[nH]cnc12)c1ccccc1 (stereo not drawn) [N-((8-chloro-2-(5-fluoro-2-(1-phenylethoxy)phenyl)-3-quinolinyl)methyl)-9H-purin-6-amine],6.25
11,Fc1ccc(OCc2cccnc2)c(-c2nc3c(Cl)cccc3cc2CNc2ncnc3[nH]cnc23)c1 [N-((8-chloro-2-(5-fluoro-2-(3-pyridinylmethoxy)phenyl)-3-quinolinyl)methyl)-9H-purin-6-amine],6.75
12,COc1ccc(F)cc1-c1nc2c(Cl)cccc2cc1CNc1ncnc2[nH]cnc12 [N-((8-chloro-2-(5-fluoro-2-methoxyphenyl)-3-quinolinyl)methyl)-9H-purin-6-amine],7.56
13,Clc1cccc2cc(CNc3ncnc4[nH]cnc34)c(-c3ccns3)nc12 [N-((8-chloro-2-(5-isothiazolyl)-3-quinolinyl)methyl)-9H-purin-6-amine],7.18
14,Clc1cccc2cc(CNc3ncnc4[nH]cnc34)c(Oc3ccccc3)nc12 [N-((8-chloro-2-phenoxy-3-quinolinyl)methyl)-9H-purin-6-amine],7.58
15,Clc1cccc2cc(CNc3ncnc4[nH]cnc34)c(-c3ccccc3)nc12 [N-((8-chloro-2-phenyl-3-quinolinyl)methyl)-9H-purin-6-amine],6.66
16,Fc1cccc2cc(CNc3ncnc4nc[nH]c34)c(-c3ccccc3)nc12 [N-((8-fluoro-2-phenyl-3-quinolinyl)methyl)-7H-purin-6-amine],6.62
17,C[C@@H](Nc1ncnc2[nH]cnc12)c1cc2c(Cl)cccc2nc1-c1cccc(F)c1 [N-((R)-1-(5-Chloro-2-(3-fluorophenyl)quinolin-3-yl)ethyl)-9H-purin-6-amine],7.47
18,C[C@@H](Nc1ncnc2[nH]cnc12)c1nc2cccc(Cl)c2nc1-c1cccc(F)c1 [N-((R)-1-(5-Chloro-3-(3-fluorophenyl)quinoxalin-2-yl)ethyl)-9H-purin-6-amine],7.86
19,C[C@H](Nc1ncnc2[nH]cnc12)c1cc2c(Cl)cccc2nc1-c1cccc(F)c1 [N-((S)-1-(5-Chloro-2-(3-fluorophenyl)quinolin-3-yl)ethyl)-9H-purin-6-amine],7.85
20,C[C@H](Nc1ncnc2[nH]cnc12)c1nc2cccc(Cl)c2nc1-c1cccc(F)c1 [N-((S)-1-(5-Chloro-3-(3-fluorophenyl)quinoxalin-2-yl)ethyl)-9H-purin-6-amine],8.07
21,"C[C@H](Nc1ncnc2[nH]cnc12)c1cc2cccc(Cl)c2nc1-c1cccc(F)c1F [N-((S)-1-(8-Chloro-2-(2,3-difluorophenyl)quinolin-3-yl)ethyl)-9H-purin-6-amine]",8.12
22,C[C@H](Nc1ncnc2[nH]cnc12)c1cc2cccc(Cl)c2nc1-c1cncs1 [N-((S)-1-(8-Chloro-2-(thiazol-5-yl)quinolin-3-yl)ethyl)-9H-purin-6-amine],7.66
23,C[C@H](Nc1ncnc2nc[nH]c12)c1cc2cccc(F)c2nc1-c1cccc(F)c1 [N-((S)-1-(8-fluoro-2-(3-fluorophenyl)quinolin-3-yl)ethyl)-7H-purin-6-amine],8.29

# Same assay, conditions: purified human B cells, anti-Human IgM + CD40L-LZ, 72 h
row,Structure (SMILES),pIC50
1,Cc1cccnc1-c1nc2c(Cl)cccc2cc1CNc1ncnc2[nH]cnc12 [N-((8-chloro-2-(3-methyl-2-pyridinyl)-3-quinolinyOmethyl)-9H-purin-6-amine],7.10
